Test results as given in patent US9481662B2, “Seriniquinones, melanoma-specific anticancer agents” (The Regents of the University of California, priority 2012, dated 2016).

Experiments:
[1] = molecular target: T1, dermcidin (DCD) (Homo sapiens, UniProt P81605); test: Immunoprecipitation with IAF probe and LC-MS/MS target identification; assay type: binding; settings: HCT-116 cell lysates, iodoacetamide treatment
T1 construct: endogenous in cells; host or cells: HCT-116 cell lysate
T1 sequence (P81605 20-110): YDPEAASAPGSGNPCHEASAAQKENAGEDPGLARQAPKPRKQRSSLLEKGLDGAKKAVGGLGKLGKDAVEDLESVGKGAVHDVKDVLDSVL
Experimental: Using established protocols,^13 HCT-116 cell lysates were treated for 8 h with probe 13 and immunoprecipitated with resins bearing a covalently-attached anti-IAF mAb.^14 Over multiple repetitions, a series of proteins ranging from 30-250 kDa were obtained in a manner dependent on the concentration probe 13 (FIG. 5A). […] Trypsin digestion coupled with LC-MS/MS analyses was then applied to identify the proteins in the more abundant bands. […] In addition to peptides from GADPH, peptides were also found in the 50 kDa band (b1, FIG. 5A) that corresponded to the 30 aa PIF core, 13 aa propeptide, and 47 aa DCD-1 peptide region of dermcidin (DCD) (FIG. 5B).
Interested if this was the case in this experimentation, the immunoprecipitated fractions were treated with 5 mM iodoacetamide prior to gel analysis. As indicated (Lane L1, FIG. 5C), a low molecular weight band corresponding to DCD appeared.
An 1 mg/mL stock of probe 14a/14b in DMSO solution was added to 1 mL of cell lysate containing ˜1 mg/mL in net protein to provide a net concentration of 3 μM 14a/14b or 30 μM 14a/14b. […]
Silver Stained bands were excised from the polyacrylamide gel and destained. […] General procedure was using in-gel trypsin digest and then the trypsin-digested peptides were analyzed by liquid chromatography LC-MS/MS with electrospray ionization. […]

[2] = tested on: HCT-116 cells; test: Cytotoxicity analysis (MTT/MTS) in HCT-116 colon carcinoma cells; assay type: cell-based, human; settings: Homo sapiens; HCT-116 cells; read-out: IC50
From the text: Fortunately, 1 was fluorescent with excitation maxima at 250 nm (ε=20,800 cm^−1M^−1), 289 nm (ε=24,000 cm^−1M^−1) and 342 nm (ε=6900 cm^−1M^−1) and a broad emission from 490-680 nm. Using confocal microscopy, red and green fluorescence from 1 appeared in HCT-116 cells within minutes of addition (FIG. 3A). […] Time course confocal imaging studies were then combined with conventional activity MTT assays^6 to provide a detailed correlation between cellular localization and cytostatic activity.
HCT-116 colon carcinoma cells were plated in 96-well plates at 2.5×10^4 cells/well. After 24 h, the cultures were treated with a single concentration seriniquinone (1) within the range of 0.02-20.0 μM, etoposide (positive control) in the range of 0.05-50 μM or 1% DMSO (negative control). The cells were incubated for either 24 h, 48 h or 72 h. At the end of the incubation period, cultures were added with 3-(4,5-dimethylthiazol-2-yl)-5-(3-carboxymethoxyphenyl)-2-(4-sulfophenyl)-2H-tetrazolium (MTS) for 3 h. Cell viability was quantified by the ability of living cells to reduce the yellow MTS dye to a purple formazan product. Time course experiments were also conducted in HCT-116 cells. Cells were exposed to 1 over short periods (1 h, 3 h, 6 h, and 9 h) followed by incubation in drug-free media to complete a total of 24 h incubation before addition of MTS.

[3] = tested on: DCD-1L; test: Covalent labeling of DCD-1L peptide (fluorescent band on SDS-PAGE); assay type: binding, human; settings: 50 μM, PBS pH 7.2, 5% DMSO, 23° C., 24 h (FIG. 5E)
From the text: FIGS. 5A-5E: Seriniquinone (1) targets dermcidin (DCD). […] Sequence listing (FIG. 5B): […] (SEQ ID NO:3); […] (SEQ ID NO:4).
The reactivity between 1 and DCD was then examined. […] These studies now provided initial support for the formation of a unique trimeric covalent adduct, compound 15, between 1, DCD and targeted proteins such as GADPH.

[4] = tested on: HCT-116 cells; test: Confocal microscopy subcellular localization; assay type: cell-based, human; settings: confocal imaging with counterstains
Experimental: Confocal studies were conducted on a LSM 710 inverted confocal microscope (Zeiss) with scanning module with 3 detection channels, Plan-Apochromat 63×/1.4 na objective, diode laser (405 nm, CW pulsed, 30 mW), Ar-laser (458 nm, 488 nm, 514 nm, 25 mW), HeNe-laser (543 nm, 1 mW) and HeNe-laser (633 nm, 5 mW). For all procedures, cells were seeded 24 h prior to treatment, to allow for adequate attachment to the well or flask bottom. Cells were plated in glass-bottom dishes (MatTek Corporation) for microscopic analyses at 1×10^5 cells/mL. Compounds were added to cells under 1 mL of media from […] such that the DMSO content remained under 0.1%. […]
Colocalization studies were conducted by treating cells (HCT-116 or MALME-3M) at a density of 1×10^5 cells/cm^2 in a 35 mm glass-bottom dish (MatTek Corporation). […] After 30 min, cells were washed PBS (4×1 mL) and immediately analyzed by confocal microscope. […] The localization of seriniquinone (1) was acquired by red fluorescence with emission at 550-631 nm, while the ER-tracker was acquired by blue florescence with emission at 406-450 nm. […] After 15 min, cells were washed PBS (4×1 mL) and immediately analyzed by confocal microscope. […] The localization of seriniquinone (1) was acquired by red fluorescence with emission at 550-631 nm, while the ER-tracker was acquired by blue florescence with emission at 415-530 nm.

protein target identified by immunoprecipitation [1]: DCD was indeed a primary target
Compound: CN(C)c1ccc2c(CC(=O)NCCCCCCNC(=O)CCc3ccc4c(=O)c5c(sc6c(=O)c7ccccc7c(=O)c65)c(=O)c4c3)cc(=O)oc2c1 [Probe 13, N-(6-(2-(7-(dimethylamino)-2-oxo-2H-chromen-4-yl)acetamido)hexyl)-3-(5,7,12,13-tetraoxo-5,7,12,13-tetrahydrodinaphtho[2,3-b:2′,3′-d]thiophen-3-yl)propanamide]
IC50 [2]: 250 ± 80 nM
fluorescent labeling of DCD-1L fragment [3]: fluorescent bands corresponding to DCD-1L
subcellular localization [4]: rapid uptake in the ER followed by transport into autophagosomes
